# Source: patent US11739098B2 (BRISTOL-MYERS SQUIBB COMPANY, priority 2017, dated 2023)
# Key:
# Assay type in all cases: cell-based
# human TLR7 = biological target: T1, human TLR7 (Homo sapiens, UniProt Q9NYK1); assay: TLR7 inhibition reporter assay (HEK-Blue cells, SEAP reporter, gardiquimod stimulation); details: HEK-Blue cells overexpressing human TLR7, SEAP reporter, gardiquimod 7.5 μM
# T1 construct: host or cells: HEK-Blue cells (HEK293-derived reporter line)
# T1 sequence (Q9NYK1 27-1049): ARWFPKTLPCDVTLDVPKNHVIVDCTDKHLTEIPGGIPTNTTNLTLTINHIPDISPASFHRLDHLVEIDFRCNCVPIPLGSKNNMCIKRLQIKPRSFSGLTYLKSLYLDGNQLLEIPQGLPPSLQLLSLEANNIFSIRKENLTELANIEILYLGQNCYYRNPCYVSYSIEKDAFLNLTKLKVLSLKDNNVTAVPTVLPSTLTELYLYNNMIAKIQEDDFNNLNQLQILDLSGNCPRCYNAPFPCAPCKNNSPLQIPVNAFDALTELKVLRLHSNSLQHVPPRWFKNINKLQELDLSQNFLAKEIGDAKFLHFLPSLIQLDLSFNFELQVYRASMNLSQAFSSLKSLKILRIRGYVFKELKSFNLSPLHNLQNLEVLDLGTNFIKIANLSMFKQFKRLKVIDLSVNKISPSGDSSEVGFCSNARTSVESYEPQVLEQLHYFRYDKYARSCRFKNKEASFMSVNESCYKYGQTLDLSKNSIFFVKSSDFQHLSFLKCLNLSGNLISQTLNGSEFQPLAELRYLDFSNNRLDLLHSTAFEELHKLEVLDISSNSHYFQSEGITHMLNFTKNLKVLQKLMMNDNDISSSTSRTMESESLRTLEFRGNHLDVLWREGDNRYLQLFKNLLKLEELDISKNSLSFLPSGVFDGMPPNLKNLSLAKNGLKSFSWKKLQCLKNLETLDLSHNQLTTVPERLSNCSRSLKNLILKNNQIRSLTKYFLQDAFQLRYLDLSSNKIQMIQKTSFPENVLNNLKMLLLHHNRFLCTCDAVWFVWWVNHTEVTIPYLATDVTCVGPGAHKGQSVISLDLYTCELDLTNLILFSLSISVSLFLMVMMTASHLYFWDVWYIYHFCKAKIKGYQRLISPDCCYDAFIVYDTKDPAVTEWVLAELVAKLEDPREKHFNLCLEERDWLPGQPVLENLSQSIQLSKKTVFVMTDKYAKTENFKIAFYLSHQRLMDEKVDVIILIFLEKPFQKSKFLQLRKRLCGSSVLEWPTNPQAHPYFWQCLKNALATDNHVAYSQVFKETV
# Protocol: (§1) TLR7/8/9 Inhibition Reporter Assays
# (§2) HEK-Blue™-cells (Invivogen) overexpressing human TLR7, TLR8 or TLR9 receptors were used for screening inhibitors of these receptors using an inducible SEAP (secreted embryonic alkaline phosphatase) reporter gene under the control of the IFN-β minimal promoter fused to five NF-κB and AP-1-binding sites. Briefly, cells are seeded into Greiner 384 well plates (15000 cells per well for TLR7, 20,000 for TLR8 and 25,000 for TLR9) and then treated with test compounds in DMSO to yield a final dose response concentration range of 0.05 nM-50 μM. After a 30 minute compound pre-treatment at room temperature, the cells are then stimulated with a TLR7 ligand (gardiquimod at a final concentration of 7.5 μM), TLR8 ligand (R848 at a final concentration of 15.9 μM) or TLR9 ligand (ODN2006 at a final concentration of 5 nM) to activate NF-κB and AP-1 which induce the production of SLAP After a 22 hour incubation at […], SLAP levels are determined with the addition of HLK-Blue™ Detection reagent (Invivogen), a cell culture medium that allows for detection of SLAP, according to manufacturer's specifications. The percent inhibition is determined as the […] in the HEK-Blue signal present in wells treated with agonist plus DMSO alone compared to wells treated with a known inhibitor.
# human TLR8 = biological target: T2, human TLR8 (Homo sapiens, UniProt Q9NR97); assay: TLR8 inhibition reporter assay (HEK-Blue cells, SEAP reporter, R848 stimulation); details: HEK-Blue cells overexpressing human TLR8, SEAP reporter, R848 15.9 μM
# T2 construct: host or cells: HEK-Blue cells (HEK293-derived reporter line)
# T2 sequence (Q9NR97 27-1041): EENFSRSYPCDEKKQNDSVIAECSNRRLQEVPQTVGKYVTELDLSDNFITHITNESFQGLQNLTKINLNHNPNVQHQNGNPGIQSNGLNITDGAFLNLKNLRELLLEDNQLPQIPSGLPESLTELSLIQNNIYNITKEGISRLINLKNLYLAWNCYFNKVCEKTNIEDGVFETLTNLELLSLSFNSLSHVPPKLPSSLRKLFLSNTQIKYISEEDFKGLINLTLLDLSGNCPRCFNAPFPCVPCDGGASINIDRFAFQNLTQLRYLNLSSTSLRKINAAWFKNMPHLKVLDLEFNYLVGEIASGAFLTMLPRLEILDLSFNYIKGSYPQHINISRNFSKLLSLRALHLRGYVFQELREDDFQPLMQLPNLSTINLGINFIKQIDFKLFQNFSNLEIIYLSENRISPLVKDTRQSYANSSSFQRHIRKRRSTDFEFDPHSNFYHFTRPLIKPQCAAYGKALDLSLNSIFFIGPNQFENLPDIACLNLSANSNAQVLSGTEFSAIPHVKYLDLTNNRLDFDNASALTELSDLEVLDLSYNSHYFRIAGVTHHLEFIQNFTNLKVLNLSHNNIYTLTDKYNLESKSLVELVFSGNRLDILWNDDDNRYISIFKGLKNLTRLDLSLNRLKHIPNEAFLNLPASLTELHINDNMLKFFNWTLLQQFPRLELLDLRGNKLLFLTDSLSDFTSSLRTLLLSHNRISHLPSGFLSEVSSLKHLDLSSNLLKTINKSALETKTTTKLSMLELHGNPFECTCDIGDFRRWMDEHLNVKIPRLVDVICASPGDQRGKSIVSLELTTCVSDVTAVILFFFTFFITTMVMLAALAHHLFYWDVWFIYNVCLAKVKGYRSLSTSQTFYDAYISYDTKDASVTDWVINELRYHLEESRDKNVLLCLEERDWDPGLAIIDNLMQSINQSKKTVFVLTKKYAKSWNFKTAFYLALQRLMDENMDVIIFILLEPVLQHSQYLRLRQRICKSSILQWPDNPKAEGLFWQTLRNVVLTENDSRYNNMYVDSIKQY
# Protocol: as §1, §2
# human TLR9 = biological target: T3, human TLR9 (Homo sapiens, UniProt Q9NR96); assay: TLR9 inhibition reporter assay (HEK-Blue cells, SEAP reporter, ODN2006 stimulation); details: HEK-Blue cells overexpressing human TLR9, SEAP reporter, ODN2006 5 nM
# T3 construct: host or cells: HEK-Blue cells (HEK293-derived reporter line)
# T3 sequence (Q9NR96 26-1032): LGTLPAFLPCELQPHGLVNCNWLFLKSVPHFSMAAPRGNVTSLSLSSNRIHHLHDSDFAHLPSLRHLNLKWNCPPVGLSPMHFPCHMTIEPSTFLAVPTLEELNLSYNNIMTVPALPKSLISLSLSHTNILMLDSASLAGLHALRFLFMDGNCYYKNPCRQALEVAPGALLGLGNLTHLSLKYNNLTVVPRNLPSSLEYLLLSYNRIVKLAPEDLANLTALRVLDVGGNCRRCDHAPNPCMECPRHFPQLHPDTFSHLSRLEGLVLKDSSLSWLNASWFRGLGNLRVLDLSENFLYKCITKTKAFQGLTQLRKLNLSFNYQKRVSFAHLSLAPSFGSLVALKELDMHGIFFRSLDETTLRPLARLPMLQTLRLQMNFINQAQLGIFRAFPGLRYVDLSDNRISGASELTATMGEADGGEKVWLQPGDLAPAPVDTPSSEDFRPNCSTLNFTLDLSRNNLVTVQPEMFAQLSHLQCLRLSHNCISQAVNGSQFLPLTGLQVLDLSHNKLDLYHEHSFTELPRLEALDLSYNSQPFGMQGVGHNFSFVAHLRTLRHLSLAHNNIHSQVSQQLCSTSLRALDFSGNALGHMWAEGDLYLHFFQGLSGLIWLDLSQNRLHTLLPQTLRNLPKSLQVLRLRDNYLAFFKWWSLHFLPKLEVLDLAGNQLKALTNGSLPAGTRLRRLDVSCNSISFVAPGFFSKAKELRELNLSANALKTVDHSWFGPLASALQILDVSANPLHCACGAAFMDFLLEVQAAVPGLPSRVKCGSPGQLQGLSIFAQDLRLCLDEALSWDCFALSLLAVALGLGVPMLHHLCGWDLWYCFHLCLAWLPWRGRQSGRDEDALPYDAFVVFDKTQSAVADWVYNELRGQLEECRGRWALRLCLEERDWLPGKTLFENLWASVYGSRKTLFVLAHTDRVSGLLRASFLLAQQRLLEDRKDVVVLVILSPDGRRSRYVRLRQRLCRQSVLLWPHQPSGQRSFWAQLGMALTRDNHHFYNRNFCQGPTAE
# Protocol: as §1, §2
IC50 (human TLR7),IC50 (human TLR8),IC50 (human TLR9),Compound
< 100 nM,100 to 1000 nM,1000 to 50000 nM,"CC(C)c1c(-c2cnc3ncnn3c2)[nH]c2ccc(C3CCN(CC(=O)N(C)C)CC3)cc12 [Example 422, 2-(4-(2-([1,2,4]triazolo[1,5-a]pyrimidin-6-yl)-3-isopropyl-1H-indol-5-yl)piperidin-1-yl)-N,N-dimethylacetamide]"
100 to 1000 nM,> 3130 nM,1000 to 50000 nM,"CC(C)(O)CC(=O)N1CCC(c2ccc3[nH]c(-c4cc(F)c5nccn5c4)c(CC(F)F)c3c2)CC1 [Example 606, 1-(4-(3-(2,2-difluoroethyl)-2-(8-fluoroimidazo[1,2-a]pyridin-6-yl)-1H-indol-5-yl)piperidin-1-yl)-3-hydroxy-3-methylbutan-1-one]"
1000 to 50000 nM,100 to 1000 nM,100 to 1000 nM,"COCC(CO)N1CCC(c2ccc3[nH]c(-c4cc(C)n5ccnc5c4)c(C(C)C)c3c2)CC1 (stereo not drawn) [Example 754, 2-(4-(3-isopropyl-2-(5-methylimidazo[1,2-a]pyridin-7-yl)-1H-indol-5-yl)piperidin-1-yl)-3-methoxypropan-1-ol]"
< 100 nM,< 100 nM,1000 to 50000 nM,"COc1cc(-c2[nH]c3ccc(C4CCNCC4)cc3c2C(C)C)cc2ncnn12 [Example 158, 7-(3-isopropyl-5-(piperidin-4-yl)-1H-indol-2-yl)-5-methoxy-[1,2,4]triazolo[1,5-a]pyridine]"
< 100 nM,< 100 nM,100 to 1000 nM,"COc1cc(-c2[nH]c3ccc(C4CCN(C5CCOCC5)CC4)cc3c2C(C)C)cn2ccnc12 [Example 706, 6-(3-isopropyl-5-(1-(tetrahydro-2H-pyran-4-yl)piperidin-4-yl)-1H-indol-2-yl)-8-methoxyimidazo[1,2-a]pyridine]"
< 100 nM,100 to 1000 nM,100 to 1000 nM,"Cc1nc2cc(-c3[nH]c4ccc(C5CCNCC5)cc4c3C(C)C)ccn2n1 [Example 156, 7-(3-isopropyl-5-(piperidin-4-yl)-1H-indol-2-yl)-2-methyl-[1,2,4] triazolo[1,5-a]pyridine]"
< 100 nM,< 100 nM,1000 to 50000 nM,"CNC(=O)CN1CCC(c2ccc3[nH]c(-c4cc(C)c5ncccc5c4)c(C(C)C)c3c2)CC1 [Example 437, 2-(4-(3-isopropyl-2-(8-methylquinolin-6-yl)-1H-indol-5-yl)piperidin-1-yl)-N-methylacetamide]"
< 100 nM,100 to 1000 nM,> 50000 nM,"Cc1cc(-c2[nH]c3ccc(C4CCN(C(=O)CN5CCC(F)(F)C5)CC4)cc3c2C(C)C)cn2nnnc12 [Example 478, 2-(3,3-difluoropyrrolidin-1-yl)-1-(4-(3-isopropyl-2-(8-methyltetrazolo[1,5-a]pyridin-6-yl)-1H-indol-5-yl)piperidin-1-yl)ethan-1-one]"
100 to 1000 nM,100 to 1000 nM,1000 to 50000 nM,"CC(C)c1c(-c2ccn3nccc3n2)[nH]c2ccc(C3CCN(CC(=O)N(C)C)CC3)cc12 [Example 425, 2-(4-(3-isopropyl-2-(pyrazolo[1,5-a]pyrimidin-5-yl)-1H-indol-5-yl)piperidin-1-yl)-N,N-dimethylacetamide]"
< 100 nM,< 100 nM,1000 to 50000 nM,"Cc1cc(-c2[nH]c3ccc(C4CCN(C(=O)CN(C)C)CC4)cc3c2C(C)C)c(C)n2nnnc12 [Example 469, 2-(dimethylamino)-1-(4-(2-(5,8-dimethyltetrazolo[1,5-a]pyridin-6-yl)-3-isopropyl-1H-indol-5-yl)piperidin-1-yl)ethan-1-one]"
100 to 1000 nM,< 100 nM,100 to 1000 nM,"CC(C)c1c(-c2ccnc3[nH]ncc23)[nH]c2ccc(C3CCN(Cc4ccccc4OCCCN(C)C)CC3)cc12 [Example 921, 3-(2-((4-(3-isopropyl-2-(1H-pyrazolo[3,4-b]pyridin-4-yl)-1H-indol-5-yl)piperidin-1-yl)methyl)phenoxy)-N,N-dimethylpropan-1-amine]"
100 to 1000 nM,1000 to 50000 nM,1000 to 50000 nM,"CC(C)c1c(-c2ccc3[nH]cnc3c2)[nH]c2ccc(C3CCNCC3)cc12 [Example 50, 5-(3-isopropyl-5-(piperidin-4-yl)-1H-indol-2-yl)-1H-benzo[d]imidazole]"
